From US6544985B2, “Dihydro-benzo [b][1,4]diazepin-2-one derivatives” (Hoffman-La Roche Inc., priority 2001, dated 2003)

Columns and labels:
[1] = biological target: T1, recombinant rat mGluR2 expressed in CHO cells (Rattus norvegicus, UniProt P31421); assay: [3H]-LY354740 binding on mGlu2 transfected CHO cell membranes (displacement binding assay)
T1 construct: expressed in transfected cells; vector pcDNA I-amp, construct pcD1mGR2
T1 sequence (P31421 19-872): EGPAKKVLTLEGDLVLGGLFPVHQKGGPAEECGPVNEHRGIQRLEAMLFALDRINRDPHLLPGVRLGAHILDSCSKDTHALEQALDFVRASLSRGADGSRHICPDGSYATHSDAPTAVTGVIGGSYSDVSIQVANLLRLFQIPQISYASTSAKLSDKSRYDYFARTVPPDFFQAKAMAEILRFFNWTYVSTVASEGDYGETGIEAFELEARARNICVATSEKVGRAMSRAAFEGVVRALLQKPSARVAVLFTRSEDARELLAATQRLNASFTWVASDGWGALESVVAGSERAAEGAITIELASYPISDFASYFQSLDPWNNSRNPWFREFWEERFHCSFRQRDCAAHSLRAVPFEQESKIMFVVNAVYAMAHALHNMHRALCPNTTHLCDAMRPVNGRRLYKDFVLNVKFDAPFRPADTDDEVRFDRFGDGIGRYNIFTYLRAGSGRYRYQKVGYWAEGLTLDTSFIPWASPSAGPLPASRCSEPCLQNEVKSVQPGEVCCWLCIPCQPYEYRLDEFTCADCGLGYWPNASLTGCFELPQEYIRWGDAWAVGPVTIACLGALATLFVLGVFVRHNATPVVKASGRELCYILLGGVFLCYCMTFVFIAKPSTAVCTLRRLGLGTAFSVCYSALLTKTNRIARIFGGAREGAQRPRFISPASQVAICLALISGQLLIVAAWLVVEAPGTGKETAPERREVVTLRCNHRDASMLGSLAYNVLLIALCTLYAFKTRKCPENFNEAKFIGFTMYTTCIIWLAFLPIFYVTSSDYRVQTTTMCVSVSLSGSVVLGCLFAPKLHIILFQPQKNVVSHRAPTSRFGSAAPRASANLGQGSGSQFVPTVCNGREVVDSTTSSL
Excerpt: These values were obtained by indirect measurement of the affinity of the compounds for the recombinant rat mGluR2 expressed in CHO cells using a displacement binding assay with 3H-LY354740.
Transfection and Cell Culture
cDNA encoding the rat mGlu2 receptor protein in pBluescript II was obtained from Prof. S. Nakanishi (Kyoto, Japan), and subcloned into the eukaryotic expression vector pcDNA I-amp from Invitrogen (NV Leek, The Netherlands). This vector construct (pcD1mGR2) was co-transfected with a psvNeo plasmid encoding the gene for neomycin resistance, into CHO cells by a modified calcium phosphate method described by Chen & Okayama (1988). The cells were maintained in Dulbecco's Modified Eagle medium with reduced L-glutamine (2 mM final concentration) and 10% dialysed foetal calf serum from Gibco BRL (Basel, Switzerland). Selection was made in the presence of G-418 (1000 ug/ml final). Clones were identified by reverse transcription of 5 μg total RNA, followed by PCR using mGlu2 receptor specific primers 5′-[sequence]-3′ and 5′-[sequence]-3′ in 60 mM Tris HCl (pH 10), 15 mM (NH4)2SO4, 2 mM MgCl2, 25 units/ml Taq Polymerase with 30 cycles annealing at 60° C. for 1 min., extention at 72° C. for 30 s, and 1 min. 95° C. denaturation.
Cells, cultured as above, were harvested and washed three times with cold PBS and frozen at −80° C. The pellet was resuspended in cold 20 mM HEPES-NaOH buffer containing 10 mM EDTA (pH 7.4), and homogenised with a polytron (Kinematica, AG, Littau, Switzerland) for 10 s at 10 000 rpm. After centrifugation for 30 min. at 4° C., the pellet was washed once with the same buffer, and once with cold 20 mM HEPES-NaOH buffer containing 0.1 mM EDTA, (pH 7.4). Protein content was measured using the Pierce method (Socochim, Lausanne, Switzerland) using bovine serum albumin as standard.
After thawing, the membranes were resuspended in cold 50 mM Tris-HCl buffer containing 2 mM MgCl2 and 2 mM CaCl2, (pH 7) (binding buffer). The final concentration of the membranes in the assays was 25 µg protein/ml. Inhibition experiments were performed with membranes incubated with 10 nM [^3H]-LY354740 at room temperature, for 1 hour, in presence of various concentrations of the compound to be tested. Following the incubations, membranes were filtered onto Whatmann GF/C glass fiber filters and washed 5 times with cold binding buffer. Non specific binding was measured in the presence of 10 μM DCG IV. After transfer of the filters into plastic vials containing 10 ml of Ultima-gold scintillation fluid (Packard, Zürich, Switzerland), the radioactivity was measured by liquid scintillation in a Tri-Carb 2500 TR counter (Packard, Zürich, Switzerland).
The inhibition curves were fitted with a four parameter logistic equation giving IC50 values, and Hill coefficients and the Ki values were calculated using the Cheng and Prusoff equation (Cheng, Y. and Prusoff, W. H., Biochem. Pharmacol. 1973, 22, 3099-3108). A small Ki value expresses high affinity of the compound towards the receptor.

CN(C)c1cc2c(cc1-c1cccc(F)c1F)NC(=O)CC(c1cccc(-n3ccnn3)c1)=N2 [Example 8, 8-(2,3-Difluoro-phenyl)-7-dimethylamino-4-(3-[1,2,3]triazol-1-yl-phenyl)-1,3-dihydro-benzo[b][1,4]diazepin-2-one]
melting point: 197 to 199 °C
Ki [1]: 70 nM

COCCN(C)c1cc2c(cc1Cl)NC(=O)CC(c1cccc(-c3cc(C)no3)c1)=N2 [Example 11]
melting point: 182 °C
Ki [1]: 25 nM

CN(C)c1cc2c(cc1Cl)NC(=O)CC(c1cccc(-c3ccnn3C)c1)=N2 [Example 16, 8-Chloro-7-dimethylamino-4-[3-(2-methyl-2H-pyrazol-3-yl)-phenyl]-1,3-dihydro-benzo[b][1,4]diazepin-2-one]
melting point: 225 °C
Ki [1]: 23 nM

CN(C)c1cc2c(cc1Cl)NC(=O)CC(c1cccc(-c3nc(CO)cs3)c1)=N2 [Example 19, 8-Chloro-7-dimethylamino-4-[3-(4-hydroxymethyl-thiazol-2-yl)-phenyl]-1,3-dihydro-benzo[b][1,4]diazepin-2-one]
melting point: 134 °C (dec.)
Ki [1]: 30 nM

Cc1cc(-c2cccc(C3=Nc4cc(OCC(F)(F)F)c(-c5ccccc5F)cc4NC(=O)C3)c2)on1 [Example 24, 8-(2-Fluoro-phenyl)-4-[3-(3-methyl-isoxazol-5-yl)-phenyl]7-(2,2,2-trifluoro-ethoxy)-1,3-dihydro-benzo[b][1,4]diazepin-2-one]
melting point: 218 to 220 °C
Ki [1]: 30 nM

CN(C)c1cc2c(cc1Cl)NC(=O)CC(c1cccc(-c3nc(CO)co3)c1)=N2 [Example 27, 8-Chloro-7-dimethylamino-4-[3-(4-hydroxymethyl-oxazol-2-yl)-phenyl]-1,3-dihydro-benzo[b][1,4]diazepin-2-one]
melting point: 193 to 195 °C
Ki [1]: 39 nM

CCCN(C)c1cc2c(cc1Cl)NC(=O)CC(c1cccc(-n3nncc3CO)c1)=N2 [Example 29, 8-Chloro-7-(methyl-propyl-amino)-4-[3-(5-hydroxymethyl-[1,2,3]triazol-1-yl)-phenyl]-1,3-dihydro-benzo[b][1,4]diazepin-2-one]
melting point: 178 °C (dec.)
Ki [1]: 30 nM

CCN(CC)c1cc2c(cc1Cl)NC(=O)CC(c1cccc(-n3nncc3CO)c1)=N2 [Example 30, 8-Chloro-7-(diethyl-amino)-4-[3-(5-hydroxymethyl-[1,2,3]triazol-1-yl)-phenyl]-1,3-dihydro-benzo[b][1,4]diazepin-2-one]
melting point: 208 °C (dec.)
Ki [1]: 44 nM

O=C1CC(c2cccc(-n3nncc3CO)c2)=Nc2cc(N3CCCC3)c(Cl)cc2N1 [Example 32, 8-Chloro-4-[3-(5-hydroxymethyl-[1,2,3]triazol-1-yl)-phenyl]-7-pyrrolidin-1-yl-1,3-dihydro-benzo[b][1,4]diazepin-2-one]
melting point: 193 to 197 °C
Ki [1]: 19 nM

CN(c1cc2c(cc1Cl)NC(=O)CC(c1cccc(-n3nncc3CO)c1)=N2)C1CC1 [Example 37, 8-Chloro-7-(cyclopropyl-methyl-amino)-4-[3-(5-hydroxymethyl-[1,2,3]triazol-1-yl)-phenyl]-1,3-dihydro-benzo[b][1,4]diazepin-2-one]
Ki [1]: 160 nM

CN(C)c1cc2c(cc1Cl)NC(=O)CC(c1cccc(-n3cccn3)c1)=N2 [Example 52, 8-Chloro-7-dimethylamino-4-(3-pyrazol-1-yl-phenyl)-1,3-dihydro-benzo[b][1,4]diazepin-2-one]
melting point: 231 to 234 °C
Ki [1]: 110 nM

CN(C)c1cc2c(cc1C(F)(F)F)NC(=O)CC(c1cccc(-c3cc(CN4CCOCC4)no3)c1)=N2 [Example 54, 7-Dimethylamino-4-[3-(3-morpholin-4-ylmethyl-isoxazol-5-yl)-phenyl]-8-trifluoromethyl-1,3-dihydro-benzo[b][1,4]diazepin-2-one]
melting point: 165 °C
Ki [1]: 125 nM

CSc1nccn1-c1cccc(C2=Nc3cc(N(C)C)c(C(F)(F)F)cc3NC(=O)C2)c1 [Example 71, 7-Dimethylamino-4-[3-(2-methylsulfanyl-imidazol-1-yl)-phenyl]-8-trifluoromethyl-1,3-dihydro-benzo[b][1,4]diazepin-2-one]
melting point: 192 °C
Ki [1]: 19 nM

CN(CC1CC1)c1cc2c(cc1C(F)(F)F)NC(=O)CC(c1ccnc(C#N)c1)=N2 [Example 78, 4-[8-(Cyclopropylmethyl-methyl-amino)-4-oxo-7-trifluoromethyl-4,5-dihydro-3H-benzo[b][1,4]diazepin-2-yl]-pyridine-2-carbonitrile]
melting point: 155 °C
Ki [1]: 5 nM

CN(C)c1cc2c(cc1C(F)(F)F)NC(=O)CC(c1cccc(-n3nncc3CNC3CC3)c1)=N2 [Example 82, 4-[3-(5-Cyclopropylaminomethyl-[1,2,3]triazol-1-yl)-phenyl]-7-dimethylamino-8-trifluoromethyl-1,3-dihydro-benzo[b][1,4]diazepin-2-one]
Ki [1]: 49 nM

N#Cc1cc(C2=Nc3cc(OCC(F)(F)F)c(C(F)(F)F)cc3NC(=O)C2)ccn1 [Example 88, 4-[4-Oxo-8-(2,2,2-trifluoro-ethoxy)-7-trifluoromethyl-4,5-dihydro-3H-benzo[b][1,4]diazepin-2-yl]-pyridine-2-carbonitrile]
melting point: 252 to 255 °C
Ki [1]: 4 nM

CCCN(C)c1cc2c(cc1C)NC(=O)CC(c1cccc(C#N)c1)=N2 [Example 92, 3-[7-Methyl-8-(methyl-propyl-amino)-4-oxo-4,5-dihydro-3H-benzo[b][1,4]diazepin-2-yl]-benzonitrile]
melting point: 195 °C
Ki [1]: 25 nM

CC(C)CN(C)c1cc2c(cc1Cl)NC(=O)CC(c1cccc(-n3nncc3CO)c1)=N2 [Example 101, 8-Chloro-4-[3-(5-hydroxymethyl-[1,2,3]triazol-1-yl)-phenyl]-7-(isobutyl-methyl-amino)-1,3-dihydro-benzo[b][1,4]diazepin-2-one]
melting point: 201 °C
Ki [1]: 20 nM

CCN(CC)c1cc2c(cc1C#N)NC(=O)CC(c1cccc(-c3cc(C)no3)c1)=N2 [Example 107, 8-Diethylamino-2-[3-(3-methyl-isoxazol-5-yl)-phenyl]-4-oxo-4,5-dihydro-3H-benzo[b][1,4]diazepine-7-carbonitrile]
melting point: 191 °C
Ki [1]: 9 nM

CCCN(C)c1cc2c(cc1Cl)NC(=O)CC(c1cccc(-n3nncc3CN3CCC3)c1)=N2 [Example 122, 4-[3-(5-Azetidin-1-ylmethyl-[1,2,3]triazol-1-yl)-phenyl]-8-chloro-7-(methyl-propyl-amino)-1,3-dihydro-benzo[b][1,4]diazepin-2-one]
melting point: 169 °C
Ki [1]: 15 nM

CC(C)CN(C)c1cc2c(cc1Cl)NC(=O)CC(c1cccc(-n3ncnc3CO)c1)=N2 [Example 163, 8-Chloro-4-[3-(5-hydroxymethyl-[1,2,4]triazol-1-yl)-phenyl]-7-(isobutyl-methyl-amino)-1,3-dihydro-benzo[b][1,4]diazepin-2-one]
melting point: 195 °C
Ki [1]: 89 nM

CN(C)c1cc2c(cc1C(F)(F)F)NC(=O)CC(c1cccc(-c3cscn3)c1)=N2 [Example 209, 7-Dimethylamino-4-(3-thiazol-4-yl-phenyl)-8-trifluoromethyl-1,3-dihydro-benzo[b][1,4]diazepin-2-one]
melting point: 200 °C (dec.)

Cc1nc(-c2cccc(C3=Nc4cc(N(C)C)c(C(F)(F)F)cc4NC(=O)C3)c2)co1 [Example 210, 7-Dimethylamino-4-[3-(2-methyl-oxazol-4-yl)-phenyl]-8-trifluoromethyl-1,3-dihydro-benzo[b][1,4]diazepin-2-one]
melting point: 192 to 193 °C

Cc1ocnc1-c1cccc(C2=Nc3cc(N(C)C)c(C(F)(F)F)cc3NC(=O)C2)c1 [Example 211, 7-Dimethylamino-4-[3-(5-methyl-oxazol-4-yl)-phenyl]-8-trifluoromethyl-1,3-dihydro-benzo[b][1,4]diazepin-2-one]
melting point: 238 to 239 °C

Cc1scnc1-c1cccc(C2=Nc3cc(N(C)C)c(C(F)(F)F)cc3NC(=O)C2)c1 [Example 213, 7-Dimethylamino-4-[3-(5-methyl-thiazol-4-yl)-phenyl]-8-trifluoromethyl-1,3-dihydro-benzo[b][1,4]diazepin-2-one]
melting point: 214 to 215 °C

Cc1nc(-c2cccc(C3=Nc4cc(N(C)C)c(C(F)(F)F)cc4NC(=O)C3)c2)c(C)s1 [Example 214, 7-Dimethylamino-4-[3-(2,5-dimethyl-thiazol-4-yl)-phenyl]-8-trifluoromethyl-1,3-dihydro-benzo[b][1,4]diazepin-2-one]
melting point: 208 to 209 °C

Cc1sc(CO)nc1-c1cccc(C2=Nc3cc(N(C)C)c(C(F)(F)F)cc3NC(=O)C2)c1 [Example 216, 7-Dimethylamino-4-[3-(2-hydroxymethyl-5-methyl-thiazol-4-yl)-phenyl]-8-trifluoromethyl-1,3-dihydro-benzo[b][1,4]diazepin-2-one]
melting point: 190 to 193 °C

CCCc1sc(CO)nc1-c1cccc(C2=Nc3cc(N(C)C)c(C(F)(F)F)cc3NC(=O)C2)c1 [Example 217, 7-Dimethylamino-4-[3-(2-hydroxymethyl-5-propyl-thiazol-4-yl)-phenyl]-8-trifluoromethyl-1,3-dihydro-benzo[b][1,4]diazepin-2-one]
melting point: 112 to 114 °C

Cc1nc(-c2cccc(C3=Nc4cc(N(C)C)c(C(F)(F)F)cc4NC(=O)C3)c2)c(CO)s1 [Example 218, 7-Dimethylamino-4-[3-(5-hydroxymethyl-2-methyl-thiazol-4-yl)-phenyl]-8-trifluoromethyl-1,3-dihydro-benzo[b][1,4]diazepin-2-one]
melting point: 226 to 227 °C

CC(C)c1nc(-c2cccc(C3=Nc4cc(N(C)C)c(C(F)(F)F)cc4NC(=O)C3)c2)c[nH]1 [Example 221, 7-Dimethylamino-4-[3-(2-isopropyl-1H-imidazol-4-yl)-phenyl]-8-trifluoromethyl-1,3-dihydro-benzo[b][1,4]diazepin-2-one]
melting point: 150 °C (dec.)

CN(C)c1cc2c(cc1Cl)NC(=O)CC(c1cccc(-c3nnc(CCO)s3)c1)=N2 [Example 223, 8-Chloro-7-dimethylamino-4-{3-[5-(2-hydroxy-ethyl)-[1,3,4]thiadiazol-2-yl]-phenyl}-1,3-dihydro-benzo[b][1,4]diazepin-2-one]
melting point: 198 to 200 °C
